Measurements published in publication PMC12549532, “The complete λ-carrageenan depolymerization cascade from a marine Pseudoalteromonad revealed by structural analysis of the enzymes” (The Journal of Biological Chemistry, 2025).
Changes are numbered by the printed parent chain.

Assays:
[1] = biological target: T1, GH110A (Pseudoalteromonas distincta, UniProt Z9OJ40UL04); experiment: X-ray crystal structure, soaked; assay type: binding; conditions: -1 subsite
T1 construct: without predicted signal peptide; pET28a N-terminal His-tag, cut with thrombin for crystals; E. coli host
T1 sequence (Z9OJ40UL04 24-600): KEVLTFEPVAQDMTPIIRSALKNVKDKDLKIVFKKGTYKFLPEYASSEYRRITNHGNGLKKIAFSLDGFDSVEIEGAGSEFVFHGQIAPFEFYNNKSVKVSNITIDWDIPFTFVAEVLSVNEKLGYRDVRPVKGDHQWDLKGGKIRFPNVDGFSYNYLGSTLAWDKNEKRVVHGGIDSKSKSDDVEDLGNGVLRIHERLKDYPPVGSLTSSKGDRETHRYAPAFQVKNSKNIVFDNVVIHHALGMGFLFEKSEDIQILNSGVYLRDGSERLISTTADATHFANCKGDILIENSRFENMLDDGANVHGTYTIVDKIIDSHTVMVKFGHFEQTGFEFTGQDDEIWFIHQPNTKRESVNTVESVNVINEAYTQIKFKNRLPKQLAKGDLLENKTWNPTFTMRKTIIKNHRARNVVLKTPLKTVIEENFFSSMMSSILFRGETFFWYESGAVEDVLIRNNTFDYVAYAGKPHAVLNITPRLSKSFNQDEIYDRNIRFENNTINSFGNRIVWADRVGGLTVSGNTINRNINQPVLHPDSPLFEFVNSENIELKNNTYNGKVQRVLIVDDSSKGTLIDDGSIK

[2] = biological target: T2, GH2 (Pseudoalteromonas distincta, UniProt Z9L5V2N5Y9); experiment: X-ray crystal structure, soaked; assay type: binding; parameters: without predicted signal peptide; pET28a N-terminal His-tag, cut with thrombin for crystals; E. coli Tuner (DE3); conditions: inhibitor in -1 subsite, capping loop closed
T2 sequence (Z9L5V2N5Y9 24-826): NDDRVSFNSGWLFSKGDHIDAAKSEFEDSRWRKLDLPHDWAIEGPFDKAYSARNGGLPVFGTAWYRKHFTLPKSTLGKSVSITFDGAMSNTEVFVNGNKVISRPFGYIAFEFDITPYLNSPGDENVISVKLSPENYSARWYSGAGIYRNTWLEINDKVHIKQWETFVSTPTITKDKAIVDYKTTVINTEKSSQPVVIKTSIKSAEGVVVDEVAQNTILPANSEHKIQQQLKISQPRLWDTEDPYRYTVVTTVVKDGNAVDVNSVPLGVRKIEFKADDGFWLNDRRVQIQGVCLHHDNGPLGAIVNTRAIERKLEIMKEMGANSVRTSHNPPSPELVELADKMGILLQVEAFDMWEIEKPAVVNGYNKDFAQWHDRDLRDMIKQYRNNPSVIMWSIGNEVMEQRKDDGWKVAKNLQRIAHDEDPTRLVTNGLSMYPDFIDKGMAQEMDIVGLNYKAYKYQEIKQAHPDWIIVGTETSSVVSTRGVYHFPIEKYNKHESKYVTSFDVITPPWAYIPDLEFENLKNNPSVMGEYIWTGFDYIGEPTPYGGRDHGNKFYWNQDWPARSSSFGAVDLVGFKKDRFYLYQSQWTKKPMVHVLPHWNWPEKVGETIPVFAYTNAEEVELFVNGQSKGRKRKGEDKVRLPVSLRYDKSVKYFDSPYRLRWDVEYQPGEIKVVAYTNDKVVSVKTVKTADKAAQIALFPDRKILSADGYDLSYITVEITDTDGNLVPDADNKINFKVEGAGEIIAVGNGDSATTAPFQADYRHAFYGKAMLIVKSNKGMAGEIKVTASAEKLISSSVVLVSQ

[3] = biological target: T2, GH2; experiment: chromogenic activity assay (data not shown)
[4] = biological target: T3, GH110A (Pseudoalteromonas distincta, UniProt Z9OJ40UL04, D324N, form not given); experiment: X-ray crystal structure, soaked; assay type: binding; conditions: inactive mutant; trisaccharide G6S in -1 subsite modelled, partial occupancy in +1 and +2
T3 construct: without predicted signal peptide; pET28a N-terminal His-tag, cut with thrombin for crystals; E. coli host
T3 sequence (Z9OJ40UL04 24-600 D324N): T1 sequence (Z9OJ40UL04 24-600) with D301N

[5] = biological target: T4, S1_8B (Pseudoalteromonas distincta, UniProt Z9FD83UQX5); experiment: X-ray crystal structure, soaked; assay type: binding; conditions: inactive mutant (printed C84S); 2.1 Å; modelled as fully sulfated Hex4S6
T4 construct: without predicted signal peptide; pET28a N-terminal His-tag, cut with thrombin for crystals; E. coli BL21 (DE3) Star
T4 sequence (Z9FD83UQX5 24-541): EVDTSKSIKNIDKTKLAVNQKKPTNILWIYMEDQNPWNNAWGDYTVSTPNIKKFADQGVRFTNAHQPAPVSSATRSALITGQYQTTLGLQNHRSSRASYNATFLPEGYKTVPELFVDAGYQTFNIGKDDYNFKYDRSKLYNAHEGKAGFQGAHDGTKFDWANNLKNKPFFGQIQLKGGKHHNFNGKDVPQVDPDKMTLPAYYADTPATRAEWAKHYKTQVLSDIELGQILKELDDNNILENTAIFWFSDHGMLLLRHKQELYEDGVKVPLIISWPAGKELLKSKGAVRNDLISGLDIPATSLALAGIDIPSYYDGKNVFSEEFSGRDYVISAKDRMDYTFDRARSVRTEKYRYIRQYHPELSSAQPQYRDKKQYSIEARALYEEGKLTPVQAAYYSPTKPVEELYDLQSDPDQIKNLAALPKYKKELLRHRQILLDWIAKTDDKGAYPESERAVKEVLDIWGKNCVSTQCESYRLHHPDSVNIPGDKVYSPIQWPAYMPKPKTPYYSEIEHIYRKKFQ

[6] = biological target: T5, S1_8B (Pseudoalteromonas distincta, UniProt Z9FD83UQX5, S94C, form not given); experiment: preparative desulfation, product seen in crystal complexes; assay type: biochemical; conditions: 2-O-desulfation of the non-reducing end
T5 construct: without predicted signal peptide; pET28a N-terminal His-tag, cut with thrombin for crystals; E. coli BL21 (DE3) Star
T5 sequence (Z9FD83UQX5 24-541 S94C): T4 sequence (Z9FD83UQX5 24-541) with S71C

## O=S(=O)(O)OC[C@H]1OC(O)[C@H](O)[C@@H](O)[C@H]1O (stereo partly drawn) [G6S]
[1]
  X-ray crystal structure, soaked: We determined the structure of GH110A in complex with the monosaccharide G6S

## OC[C@H]1CNC[C@@H](O)[C@H]1O [GIF, galactoisofagomine]
[2]
  X-ray crystal structure, soaked: The structure of GH2 in complex with the inhibitor galactoisofagomine (GIF)

## O=[N+]([O-])c1ccc(O[C@@H]2O[C@H](CO)[C@H](O)[C@H](O)[C@H]2O)cc1 [pNP-β-Gal, pNP-β-D-galactopyranoside]
[3]
  chromogenic activity assay (data not shown): GH2 was active on pNP-β-D-galactopyranoside (pNP-β-Gal; not shown)

## O=S(=O)(O)OC[C@H]1O[C@H](O[C@H]2[C@@H](O)[C@@H](CO)O[C@@H](O[C@@H]3[C@H](O)[C@@H](OS(=O)(=O)O)[C@@H](O[C@H]4[C@@H](O)[C@@H](CO)OC(O)[C@@H]4OS(=O)(=O)O)O[C@@H]3COS(=O)(=O)O)[C@@H]2OS(=O)(=O)O)[C@H](O)[C@@H](O)[C@H]1O (stereo partly drawn) [λ-NC4 pre-treated with S1_8B]
[4]
  X-ray crystal structure, soaked: determining its structure in complex with λ−NC4 that was pre-treated with S1_8B

## O=S(=O)(O)OC[C@H]1O[C@H](O[C@H]2[C@@H](O)[C@@H](CO)O[C@@H](O[C@@H]3[C@H](O)[C@@H](OS(=O)(=O)O)[C@@H](O[C@H]4[C@@H](O)[C@@H](CO)OC(O)[C@@H]4OS(=O)(=O)O)O[C@@H]3COS(=O)(=O)O)[C@@H]2OS(=O)(=O)O)[C@H](OS(=O)(=O)O)[C@@H](O)[C@H]1O (stereo partly drawn) [λ-NC4, λ-neocarratetraose]
[5]
  X-ray crystal structure, soaked: We were able to model both tetrasaccharides as fully sulfated λ−NC4 (i.e., Hex4S6)
[6]
  preparative desulfation, product seen in crystal complexes: pretreated with S1_8B to convert the non-reducing end residue to G6S
